Data taken from patent US5863916A, “8-aza, 6-aza and 6,8-diaza-1,4-dihydroquinoxaline-2,3-diones and the use thereof as antagonists for the glycine/NMDA receptor” (priority 1997, dated 1999).
pKi: −log10 of the molar value.

Key:
[1] = system: glycine binding site of the NMDA receptor; settings: cited from earlier work
MES-induced seizures = experiment: anticonvulsant activity, maximum electroshock-induced seizure (MES) experiment in mice; type: in vivo, mouse; settings: for ED50: Mus musculus, iv, read-out: ED50 as an anticonvulsant in MES experiment
Experimental: The anticonvulsant activity of the glycine antagonists may be assessed in the maximum electroshock-induced seizure (MES) assay in mice. […] The seizure stimulus parameters were: 50 mA, 60 Hz, rectangular pulse, width 0.8 msec, duration 200 msec. Tonic hind limb extension observed after application of the electrical stimulus was recorded as occurrence of seizure. The drug was applied i.v. as an aqueous basic solution.

glycine/NMDA receptor = glycine/NMDA receptor affinity (1 μM glycine-stimulated [3H]-MK801 binding, rat brain membranes; also estimated by electrophysiology)
Experimental: The assay is conducted using rat brain membrane homogenates that are enriched in NMDA receptors. The membranes are prepared as follows. Frozen rat brains (obtained from Pel-Freez, Rogers, Ark.) are homogenized in 15 volumes (w/v) of ice cold 0.32M sucrose. The homogenate is spun at 1,000×g for ten minutes. The supernatant is collected and spun for 20 minutes at 44,000×g. The pellet is suspended in 15 volumes of water (relative to original brain weight). The homogenate is again spun at 44,000×g for twenty minutes. The pellet is resuspended in 5 volumes of water and the suspension is freeze-thawed 2 times. After the final thaw cycle, the suspension is brought to 15 volumes with water and spun at 44,000×g for twenty minutes. The pellet is resuspended in 5 volumes of ice-cold 10 mM HEPES, and is titrated to pH 7.4 with KOH containing 0.04% Triton X-100. […] The volume is then brought to 15 with ice-cold 10 mM HEPES, pH 7.4, and spun/washed three times with spins of 44,000×g between washes. The final pellet is suspended in three volumes of 50 mM HEPES, pH 7.4 and the protein concentration is determined with a standard dye-binding protein assay (Bio-Rad, Richmond, Calif.). The suspension is stored at -80° C. until used. Only HPLC grade water is used for all buffers and suspensions/washings. The extensive washings are necessary to remove as much endogenous glycine from the membrane preparation as possible.
Nonspecific binding is defined as the […] presence of PCP (final concentration: 100 μM). […] A 500 nM concentration (final) of 5,7-dichlorokynurenic (DCK) acid is added to all assay tubes. This concentration of the glycine antagonist DCK "buffers" most of the residual endogenous glycine that is not removed by the extensive washing steps that are carried out during the membrane preparation procedure.
Filtration is accomplished using a Brandel 48 well cell harvester. Filtered membranes are washed three times with 3 mL each of ice cold buffer. Filters are transferred to scintillation vials and 5 mL of scintillation cocktail is added. The vials are shaken overnight and the radioactivity is counted by liquid scintillation spectroscopy. The assays are done in triplicate and all experiments are conducted at least three times.
(§1) The binding affinities at NMDA receptor glycine sites also were estimated by electrophysiological assay either using cloned rat NMDA receptors expressed in Xenopus oocytes, or non-NMDA receptors expressed in oocytes by whole rat brain poly(A)^+ RNA. […] For NMDA receptors Kb s were approximated by averaging values at three subtype combinations (NR1A/NR2A, NR1A/NR2B, and NR1A/NR2C).

[2] = system: MES-induced tonic clonic seizures; experiment: Example 35: time course and potency in maximum electroshock (MES) model, i.v., mice; type: in vivo, Swiss-Webster mouse; settings: for protection of mice at the lowest dose: 2 minutes; for animals showing no tonic seizures: 2 minutes after i.v. 5 mg/kg (6-chloro-8-(N-oxy)aza) or 10 mg/kg (6-chloro-7-methyl-8-(N-oxy)aza); for mice protected against seizures: 15 minutes after i.v. 5 mg/kg (6-chloro-8-(N-oxy)aza) or 10 mg/kg (6-chloro-7-methyl-8-(N-oxy)aza); for ED50: Mus musculus, iv, 2 min, Litchfield and Wilcoxon, read-out: ED50, inhibition of MES-induced seizures; for ED50 / 95% confidence limits of ED50 / inhibition of MES-induced seizures / time of maximal anti-MES effect: i.v.; for ED50 / 95% confidence limits of ED50: 2 minutes post injection; for efficacy in inhibiting MES-induced tonic seizures over time: i.v. time course, 2-60 minutes; for inhibition of MES-induced seizures: dose dependence; for time of maximal anti-MES effect: post-injection
Source text: The objectives of the studies were to determine the time of maximal effect and potency for compounds 6-chloro-8-(N-oxy)aza-1,4-dihydroquinoxaline-2,3-dione and 6-chloro-7-methyl-8-(N-oxy)aza-1,4-dihydroquinoxaline-2,3-dione in the inhibition of maximal electroshock (MES)-induced tonic clonic seizures following intravenous (i.v.) administration in mice.
The time-course study involved a one-factor, between groups design in which animals were divided into groups based on the time between administration of 6-chloro-8-(N-oxy)aza-1,4-dihydroquinoxaline-2,3-dione and 6-chloro-7-methyl-8-(N-oxy)aza-1,4-dihydroquinoxaline-2,3-dione and the MES stimulus. Similarly, the potency study involved a one-factor, between group design in which animals were divided into groups based on drug dose. Each group in both studies consisted of 8 animals.
6-Chloro-8-(N-oxy)aza-1,4-dihydroquinoxaline-2,3-dione and 6-chloro-7-methyl-8-(N-oxy)aza-1,4-dihydroquinoxaline-2,3-dione were dissolved in 0.05M Tris (J. T. Baker) at concentrations of 5 mg/mL and 2.5 mg/mL, respectively.
Experiments were conducted with Swiss-Webster male mice (Simonsen Lab. Inc.). Mice were 5-6 weeks old and weighed 18-24 g upon arrival in the laboratory. In the time course study, mice were treated with an i.v. injection of 6-chloro-8-(N-oxy)aza-1,4-dihydroquinoxaline-2,3-dione (5 mg/kg) or 6-chloro-7-methyl-8-(N-oxy)aza-1,4-dihydroquinoxaline-2,3-dione(10 mg/kg) or vehicle. Mice were tested at 2, 15, 30, or 60 minutes after vehicle or drug administration. […] The electroshock device was a Ugo Basile ECT Unit 7801 (Varese, Italy; Model 24093). The electroshock characteristics were as follows: 50 mA, 60 pulses per second, […], and a 0.2 second train length. […] Tonic seizures were defined as the tonic extension of the forelimbs and hindlimbs. […] Therefore, the result from each animal was an all-or-none phenomenon with either a seizure present or absent following the shock administration. The time point at which 6-chloro-8-(N-oxy)aza-1,4-dihydroquinoxaline-2,3-dione and 6-chloro-7-methyl-8-(N-oxy)aza-1,4-dihydroquinoxaline-2,3-dione produced a maximal response was determinated by analyzing the graphical results. The dose at which 50% of the animals were protected against MES-induced seizures (ED50) was calculated by Litchfield and Wilcoxon Method (Pharm/PCS R. J. Tallarida & R. B. Murray Version 4.2).

[3] = system: focal cerebral ischemia (MCA occlusion); experiment: rat model of permanent focal cerebral ischemia (MCA occlusion), infarct volume; type: in vivo, Sprague-Dawley rat
Experimental: Male Sprague-Dawley rats ([…]) were intubated and maintained under anesthesia with ±2% of halothane. Body temperature was maintained at 37.5° C. during surgery by means of a warming pad and a rectal probe connected to the control unit. The common carotid arteries (CCA) were isolated and a loose silk ligature was placed around each CCA. A vertical skin incision was made between the left orbit and the auditory canal, posterior part of zygoma removed, and a small opening (2.0/2.5 mm) drilled dorsorostrally to the foramen ovale under constant saline irrigation. The dura was opened with a microsurgical hook and the brain gently retracted with a fine spatula to expose the bifurcation of the internal carotid artery and the middle cerebral artery. The ipsilateral CCA was ligated and the MCA coagulated from its origin to the olfactory tract. Two hours after MCA occlusion, the clip from the contralateral CCA was removed. […]
Brains were sliced into 2 mm blocks and stained with tetrazolium red (2,3,5-triphenyl tetrazolium chloride). The areas of brain damage were assessed using an image analyzer (Image-1, Universal Imaging Corporation, PA) to determine the volume of cortical and subcortical infarction by integration of areas and the distance between each level.

[4] = blood-brain-barrier crossing inferred from Ki and MES ED50; type: in vivo, mouse
non-NMDA receptor = non-NMDA receptor affinity; type: binding, rat
Experimental: (§2) Filtered membranes are washed three times with 3 mL each of ice cold buffer.
as §2, §1

katalepsy = settings: pigeons; cited from earlier work
brain ischemia / neurons = settings: cited from earlier work
[5] = system: PCP-like behavioral effects; settings: in vivo; cited from earlier work
[6] = 20 mg/kg bolus + 14 mg/kg/h for 22 h, 30 min after MCA occlusion

SMILES: O=C(O)c1cc(O)c2c(Cl)cc(Cl)cc2n1 [5,7-dichlorokynurenic acid]
- receptor binding affinity in vitro [1]: relatively high receptor binding affinity in vitro

SMILES: O=c1[nH]c2cc(Cl)c(Cl)[n+]([O-])c2[nH]c1=O [6,7-Dichloro-8(N-oxy)aza-1,4-dihydroquinoxaline-2,3-dione]
- ED50 (MES-induced seizures): 7.5 mg/kg
- pKi (glycine/NMDA receptor): 7.00

SMILES: O=c1[nH]c2cc(Cl)c(Cl)c([N+](=O)[O-])c2[nH]c1=O [6,7-dichloro-5-nitro-1,4-dihydroquinoxaline-2,3-dione, reference compound]
- ED50 as an anticonvulsant in MES experiment (MES-induced seizures): 4 to 5 mg/kg
- pKi (glycine/NMDA receptor): 8.48

SMILES: O=c1[nH]c2cc(Br)c[n+]([O-])c2[nH]c1=O [6-Bromo-8-(N-oxy)aza-1,4-dihydroquinoxaline-2,3-dione]
- ED50 (MES-induced seizures): 1 to 1.5 mg/kg
- pKi (glycine/NMDA receptor): 6.00

SMILES: Cc1c(Cl)cc2[nH]c(=O)c(=O)[nH]c2[n+]1[O-] [6-Chloro-7-methyl-8-(N-oxy)aza-1,4-dihydroquinoxaline-2,3-dione]
- protection of mice at the lowest dose ([2]; 4 mg/kg i.v.): 12.5%
- animals showing no tonic seizures [2]: 8/8
- mice protected against seizures [2]: 3/8
- ED50 [2]: 6.71 mg/kg
- efficacy in inhibiting MES-induced tonic seizures over time [2]: decreased over one hour
- 95% confidence limits of ED50 [2]: 5.48 to 8.22 mg/kg
- inhibition of MES-induced seizures [2]: dose dependently, inhibited MES-induced seizures
- time of maximal anti-MES effect [2]: 2 min
- ED50 (MES-induced seizures): 7 mg/kg
- pKi (glycine/NMDA receptor): 7.30

SMILES: [O-][n+]1cc(Cl)cc2nc(O)c(O)nc21 [6-Chloro-8-(N-oxy)aza-1,4-dihydroquinoxaline-2,3-dione]
- protection at the lower dose ([3]; 10 mg/kg bolus + 7 mg/kg/h for 22 h, immediately after MCA occlusion): no protection
- reduction in cortical infarct volume [3, 6]: 70%
- reduction in subcortex infarct volume [3, 6]: 35%
- reduction in cortical infarct volume ([3]; 20 mg/kg bolus + 14 mg/kg/h for 22 h i.v., immediately after MCA occlusion): 67%
- neuroprotection ([3]; rat model of focal ischemia): significant neuroprotection
- blood-brain-barrier crossing relative to 6,7-dichloro-5-nitro-1,4-dihydroquinoxaline-2,3-dione [4]: about 1000 times
- protection of mice at the lowest dose ([2]; 0.5 mg/kg i.v.): 25%
- animals showing no tonic seizures [2]: 8/8
- mice protected against seizures [2]: 4/8
- ED50 [2]: 1.26 mg/kg
- efficacy in inhibiting MES-induced tonic seizures over time [2]: decreased over one hour
- 95% confidence limits of ED50 [2]: 0.94 to 1.67 mg/kg
- inhibition of MES-induced seizures [2]: dose dependently, inhibited MES-induced seizures
- time of maximal anti-MES effect [2]: 2 min
- ED50 (MES-induced seizures): 1 to 1.5 mg/kg
- pKi (glycine/NMDA receptor): 6.22

SMILES: Cc1cc2[nH]c(=O)c(=O)[nH]c2[n+]([O-])c1 [6-Methyl-8-(N-oxy)aza-1,4-dihydroquinoxaline-2,3-dione]
- ED50 (MES-induced seizures): 1 to 1.5 mg/kg
- pKi (glycine/NMDA receptor): 5.62

SMILES: O=C(O)c1cc(O)c2ccc(Cl)cc2n1 [7-Cl-kynurenic acid]
- receptor binding affinity in vitro [1]: relatively high receptor binding affinity in vitro

SMILES: O=c1[nH]c2cc(Cl)cnc2[nH]c1=O [Compound 5, 6-Chloro-8-aza-1,4-dihydroquinoxaline-2,3-dione]
- activity relative to corresponding QX (glycine/NMDA receptor): about as active as the corresponding 6-chloro-QX

SMILES: O=c1[nH]c2cc(Cl)c(Cl)nc2[nH]c1=O [Compound 6, 6,7-Dichloro-8-aza-1,4-dihydroquinoxaline-2,3-dione]
- pKi (glycine/NMDA receptor): ~6.70

SMILES: Cc1nc2[nH]c(=O)c(=O)[nH]c2cc1Br [Compound 8, 6-Bromo-7-methyl-8-aza-1,4-dihydroquinoxaline-2,3-dione]
- pKi (glycine/NMDA receptor): ~6.70

SMILES: O=c1[nH]c2ccncc2[nH]c1=O [Compound 11, 6-Aza-1,4-dihydroquinoxaline-2,3-dione]
- activity relative to corresponding QX (glycine/NMDA receptor): about as active as QX

SMILES: O=c1[nH]c2cncnc2[nH]c1=O [Compound 13, 6,8-Diaza-1,4-dihydroquinoxaline-2,3-dione]
- activity relative to corresponding QX (glycine/NMDA receptor): about as active as QX

SMILES: O=c1[nH]c2cc([N+](=O)[O-])c[n+]([O-])c2[nH]c1=O [Compound 64, 7-Nitro-5-(N-oxy)aza-1,4-dihydroquinoxaline-2,3-dione]
- pKi (non-NMDA receptor): 6.47
- ED50 (MES-induced seizures): 3 to 4 mg/kg
- pKi (glycine/NMDA receptor): 6.89

SMILES: NC1CCN(O)C1=O (stereo not shown) [HA-966]
- agonist character [1]: partial agonist
- receptor binding affinity in vitro [1]: micromolar affinity for the glycine binding site

SMILES: c1ccc(C2(N3CCCCC3)CCCCC2)cc1 [PCP, phencyclidine]
- katalepsy (katalepsy): characteristic katalepsy in pigeons
- neuroprotective efficacy (brain ischemia / neurons): neuroprotective efficacy both in vitro and in vivo
- PCP-like behavioral side effects [5]: behavioral excitation (hyperlocomotion) in rodents

SMILES: COc1ccc2c(c1)[C@]13CCCC[C@@H]1[C@H](C2)N(C)CC3 [dextromethorphan]
- neuroprotective efficacy (brain ischemia / neurons): neuroprotective efficacy both in vitro and in vivo

SMILES: O=C(O)c1cc2ccccc2[nH]1 [indole-2-carboxylic acid]
- receptor binding affinity in vitro [1]: relatively high receptor binding affinity in vitro

SMILES: CNC1(c2ccccc2Cl)CCCCC1=O (stereo not shown) [ketamine]
- neuroprotective efficacy (brain ischemia / neurons): neuroprotective efficacy both in vitro and in vivo
